In patent publication US20090075951A1, “Methods and Reagents for the Treatment of Inflammatory Disorders” (CombinatoRx, Inc., priority 2003, published 2009):
Where two headings read alike, the source gives them in different places.

What was measured:
cytokine secretion = test: Suppression of cytokine secretion in vitro by individual tricyclic compounds
Method: Individual tricyclic compounds were tested for their ability to suppress cytokine secretion in vitro.

[1] = tested on: TNFα secretion from PMA/ionomycin stimulated white blood cells from human buffy coat; test: TNFα secretion assay, PMA/ionomycin stimulation; conditions: for inhibition at 0.03 µM: read-out: TNFα PI percent inhibition, 0.03 μM; for inhibition at 0.06 µM: read-out: TNFα PI percent inhibition, 0.06 μM; for inhibition at 0.5 µM: read-out: TNFα PI percent inhibition, 0.50 μM; for inhibition at 1 µM: read-out: TNFα PI percent inhibition, 1.00 μM; for inhibition at 2 µM: read-out: TNFα PI percent inhibition, 2.00 μM; for inhibition at 4 µM: read-out: TNFα PI percent inhibition, 4.00 μM; for inhibition at 8 µM: read-out: TNFα PI percent inhibition, 8.00 μM
Method: (§1) Various concentrations of each test compound were added at the time of stimulation. […] After the plate was washed with 0.1% Tween 20/PBS, an HRP-luminescent substrate was added to each well and light intensity measured using a LJL Analyst plate luminometer.

[2] = tested on: TNFα secretion from LPS stimulated white blood cells from human buffy coat; test: TNFα secretion assay, LPS stimulation; conditions: for inhibition at 0.03 µM: read-out: TNFα LPS percent inhibition, 0.03 μM; for inhibition at 0.06 µM: read-out: TNFα LPS percent inhibition, 0.06 μM; for inhibition at 0.5 µM: read-out: TNFα LPS percent inhibition, 0.50 μM; for inhibition at 1 µM: read-out: TNFα LPS percent inhibition, 1.00 μM; for inhibition at 2 µM: read-out: TNFα LPS percent inhibition, 2.00 μM; for inhibition at 4 µM: read-out: TNFα LPS percent inhibition, 4.00 μM; for inhibition at 8 µM: read-out: TNFα LPS percent inhibition, 8.00 μM
Method: as §1

[3] = read-out: IL-1β LPS percent inhibition
[4] = read-out: IL-2 PI percent inhibition
[5] = read-out: TNFα PI percent inhibition, […]
[6] = Homo sapiens, read-out: TNFα LPS percent inhibition, […]

Structure (SMILES): CN(C)CCC=C1c2ccccc2CCc2ccccc21 [Amitriptyline, amitriptyline]
- inhibition at 0.03 µM (cytokine secretion; [3]): 0%
- inhibition at 0.06 µM (cytokine secretion; [3]): 0%
- inhibition at 0.5 µM (cytokine secretion; [3]): 0%
- inhibition at 1 µM (cytokine secretion; [3]): 0%
- inhibition at 2 µM (cytokine secretion; [3]): 0%
- inhibition at 4 µM (cytokine secretion; [3]): 11%
- inhibition at 8 µM (cytokine secretion; [3]): 7%
- inhibition at 16 µM (cytokine secretion; [3]): 0%
- inhibition at 32 µM (cytokine secretion; [3]): 0%
- inhibition at 64 µM (cytokine secretion; [3]): 0%
- inhibition at 0.03 µM (cytokine secretion; [4]): 0%
- inhibition at 0.06 µM (cytokine secretion; [4]): 2%
- inhibition at 0.5 µM (cytokine secretion; [4]): 0%
- inhibition at 1 µM (cytokine secretion; [4]): 0%
- inhibition at 2 µM (cytokine secretion; [4]): 0%
- inhibition at 4 µM (cytokine secretion; [4]): 4%
- inhibition at 8 µM (cytokine secretion; [4]): 7%
- inhibition at 16 µM (cytokine secretion; [4]): 33%
- inhibition at 32 µM (cytokine secretion; [4]): 62%
- inhibition at 64 µM (cytokine secretion; [4]): 82%
- inhibition at 0.03 µM [1]: 0%
- inhibition at 0.06 µM [1]: 0%
- inhibition at 0.5 µM [1]: 0%
- inhibition at 1 µM [1]: 0%
- inhibition at 2 µM [1]: 0%
- inhibition at 4 µM [1]: 5%
- inhibition at 8 µM [1]: 21%
- inhibition at 16 µM [1, 5]: 35%
- inhibition at 32 µM [1, 5]: 66%
- inhibition at 64 µM [1, 5]: 81%
- inhibition at 0.03 µM ([2]; Homo sapiens): 0%
- inhibition at 0.06 µM ([2]; Homo sapiens): 0%
- inhibition at 0.5 µM ([2]; Homo sapiens): 0%
- inhibition at 1 µM ([2]; Homo sapiens): 0%
- inhibition at 2 µM ([2]; Homo sapiens): 0%
- inhibition at 4 µM ([2]; Homo sapiens): 0%
- inhibition at 8 µM ([2]; Homo sapiens): 0%
- inhibition at 16 µM [2, 6]: 0%
- inhibition at 32 µM [2, 6]: 18%
- inhibition at 64 µM [2, 6]: 45%

Structure (SMILES): CN(C)CCC=C1c2ccccc2COc2ccccc21 [Doxepin, doxepin]
- inhibition at 0.03 µM (cytokine secretion; [3]): 0%
- inhibition at 0.06 µM (cytokine secretion; [3]): 1%
- inhibition at 63 µM (cytokine secretion; [3]): 26%
- inhibition at 0.03 µM (cytokine secretion; [4]): 0%
- inhibition at 0.06 µM (cytokine secretion; [4]): 0%
- inhibition at 63 µM (cytokine secretion; [4]): 61%
- inhibition at 0.03 µM [1]: 0%
- inhibition at 0.06 µM [1]: 0%
- inhibition at 63 µM [1, 5]: 78%
- inhibition at 0.03 µM ([2]; Homo sapiens): 0%
- inhibition at 0.06 µM ([2]; Homo sapiens): 5%
- inhibition at 63 µM [2, 6]: 13%

Structure (SMILES): CC(CN(C)C)CN1c2ccccc2CCc2ccccc21 (stereo not shown) [Trimipramine, trimipramine]
- inhibition at 0.01 µM (cytokine secretion; [3]): 0%
- inhibition at 0.03 µM (cytokine secretion; [3]): 0%
- inhibition at 0.06 µM (cytokine secretion; [3]): 0%
- inhibition at 29 µM (cytokine secretion; [3]): 2%
- inhibition at 0.01 µM (cytokine secretion; [4]): 0%
- inhibition at 0.03 µM (cytokine secretion; [4]): 5%
- inhibition at 0.06 µM (cytokine secretion; [4]): 6%
- inhibition at 29 µM (cytokine secretion; [4]): 36%
- inhibition at 0.01 µM ([1]; read-out: TNFα PI percent inhibition, 0.01 μM): 0%
- inhibition at 0.03 µM [1]: 0%
- inhibition at 0.06 µM [1]: 0%
- inhibition at 29 µM [1, 5]: 77%
- inhibition at 0.01 µM ([2]; Homo sapiens, read-out: TNFα LPS percent inhibition, 0.01 μM): 0%
- inhibition at 0.03 µM ([2]; Homo sapiens): 1%
- inhibition at 0.06 µM ([2]; Homo sapiens): 3%
- inhibition at 29 µM [2, 6]: 11%

Structure (SMILES): CNCCCN1c2ccccc2CCc2ccccc21 [Desipramine, desipramine]
- inhibition at 0.03 µM (cytokine secretion; [3]): 0%
- inhibition at 0.06 µM (cytokine secretion; [3]): 0%
- inhibition at 0.5 µM (cytokine secretion; [3]): 11%
- inhibition at 1 µM (cytokine secretion; [3]): 13%
- inhibition at 2 µM (cytokine secretion; [3]): 10%
- inhibition at 4 µM (cytokine secretion; [3]): 10%
- inhibition at 8 µM (cytokine secretion; [3]): 10%
- inhibition at 16 µM (cytokine secretion; [3]): 3%
- inhibition at 32 µM (cytokine secretion; [3]): 9%
- inhibition at 64 µM (cytokine secretion; [3]): 36%
- inhibition at 0.03 µM (cytokine secretion; [4]): 0%
- inhibition at 0.06 µM (cytokine secretion; [4]): 0%
- inhibition at 0.5 µM (cytokine secretion; [4]): 0%
- inhibition at 1 µM (cytokine secretion; [4]): 0%
- inhibition at 2 µM (cytokine secretion; [4]): 0%
- inhibition at 4 µM (cytokine secretion; [4]): 0%
- inhibition at 8 µM (cytokine secretion; [4]): 8%
- inhibition at 16 µM (cytokine secretion; [4]): 38%
- inhibition at 32 µM (cytokine secretion; [4]): 68%
- inhibition at 64 µM (cytokine secretion; [4]): 76%
- inhibition at 0.03 µM [1]: 0%
- inhibition at 0.06 µM [1]: 0%
- inhibition at 0.5 µM [1]: 0%
- inhibition at 1 µM [1]: 0%
- inhibition at 2 µM [1]: 1%
- inhibition at 4 µM [1]: 17%
- inhibition at 8 µM [1]: 26%
- inhibition at 16 µM [1, 5]: 60%
- inhibition at 32 µM [1, 5]: 79%
- inhibition at 64 µM [1, 5]: 89%
- inhibition at 0.03 µM ([2]; Homo sapiens): 0%
- inhibition at 0.06 µM ([2]; Homo sapiens): 0%
- inhibition at 0.5 µM ([2]; Homo sapiens): 0%
- inhibition at 1 µM ([2]; Homo sapiens): 0%
- inhibition at 2 µM ([2]; Homo sapiens): 0%
- inhibition at 4 µM ([2]; Homo sapiens): 0%
- inhibition at 8 µM ([2]; Homo sapiens): 0%
- inhibition at 16 µM [2, 6]: 3%
- inhibition at 32 µM [2, 6]: 34%
- inhibition at 64 µM [2, 6]: 64%
- percent inhibition of TNFα secretion ([2]; LPS, Prednisolone 1 μM, Desipramine μM r5-r13: 0,0.5,1,2,4,8,16,32,64): 60.8%
